Target: Krueppel-like factor 5 (Homo sapiens) (UniProt Q13887)
Assay: change in KLF5 protein levels, late-stage follow-up, counter-screen for KLF5 inhibitor project, western blot, chemiluminescence, HCT116 colorectal cells (AID 588652)
Conditions: HCT116 KLF5 protein level, 24 h, at 10 µM, active compounds read high

Krueppel-like factor 5 (Homo sapiens), sequence (Q13887 whole entry, looked up): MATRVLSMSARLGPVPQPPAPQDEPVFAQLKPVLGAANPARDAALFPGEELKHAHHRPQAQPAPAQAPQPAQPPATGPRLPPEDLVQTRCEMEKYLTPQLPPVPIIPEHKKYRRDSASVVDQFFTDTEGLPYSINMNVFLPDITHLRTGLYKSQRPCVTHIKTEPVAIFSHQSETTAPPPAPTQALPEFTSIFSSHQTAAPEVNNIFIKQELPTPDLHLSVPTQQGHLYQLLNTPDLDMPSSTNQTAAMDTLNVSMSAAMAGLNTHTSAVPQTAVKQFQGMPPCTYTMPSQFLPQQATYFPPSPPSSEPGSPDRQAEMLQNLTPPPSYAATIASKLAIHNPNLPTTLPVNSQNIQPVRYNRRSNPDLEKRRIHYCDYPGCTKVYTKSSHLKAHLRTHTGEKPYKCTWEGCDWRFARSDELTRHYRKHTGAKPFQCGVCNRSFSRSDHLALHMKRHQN

- inhibition: 62.6%
SMILES: CN(C(=O)COC(=O)/C=C/c1cccc([N+](=O)[O-])c1)C1CCS(=O)(=O)C1 (stereo unspecified)
